The test concerns the target purified human, His-tagged PRC2 complex (Homo sapiens (Human), UniProt O75530). The test can be described thus: Hot Spot HMT assay, inhibition of PRC2 enzymatic activity. The test is classed as biochemical. The conditions noted are these: 10 nM PRC2 complex, 1 μM 3H-SAM, core histone H3, 10-point dose-response. The source says: The assay uses purified human, His-tagged PRC2 complex, including N-terminal His-tagged EZH2 enzyme, N-terminal Flag-tagged embryonic ectoderm development protein (EED), N-terminal His-tagged suppressor of zeste 12 (SUZ12), N-terminal His-tagged AEBP2, and N-terminal His-tagged RbAp48. In this assay, the transfer of the tritiated methyl group from radiolabeled S-adenosyl methionine (SAM) to purified core histone protein by EZH2 is quantitated after filtration to determine the activity of the core PRC2 complex in the presence and absence of compound.
The initial starting concentration for the serial dilutions of each compound was 1.0 μM. […] SAH (S-(5-adenosyl)-L-homocysteine) was used as a positive control for assay validation.
An aliquot of each serial dilution of test compound was added to deep 384 well plate using Acoustic Technology instrument (Echo 550, LabCyte) containing reaction buffer (50 mM Tris-HCl (pH 8.)), 0.01% Brij35, 1 mM EDTA, 1 mM DTT, 1 mM PMSF and 1% DMSO), 10 nM purified PRC2 complex and 0.05 mg/ml core histone H3 in a 5 μl volume. The reaction was mixed gently and then pre-incubated for 20 min at 30° C. The enzymatic reaction was initiated by adding 1 μM S-Adenosyl-L-[methyl-^3H]methionine and incubated for 1 hr at 30° C. After 1 hr, the reaction product was detected using a filter binding method and the amount of tritiated H3 core histone was quantitated using a scintillation counter. […] Key: A=<100 nM; B=>100 nM-<500 nM; and C=>500 nM.
purified human, His-tagged PRC2 complex, sequence (O75530 whole entry): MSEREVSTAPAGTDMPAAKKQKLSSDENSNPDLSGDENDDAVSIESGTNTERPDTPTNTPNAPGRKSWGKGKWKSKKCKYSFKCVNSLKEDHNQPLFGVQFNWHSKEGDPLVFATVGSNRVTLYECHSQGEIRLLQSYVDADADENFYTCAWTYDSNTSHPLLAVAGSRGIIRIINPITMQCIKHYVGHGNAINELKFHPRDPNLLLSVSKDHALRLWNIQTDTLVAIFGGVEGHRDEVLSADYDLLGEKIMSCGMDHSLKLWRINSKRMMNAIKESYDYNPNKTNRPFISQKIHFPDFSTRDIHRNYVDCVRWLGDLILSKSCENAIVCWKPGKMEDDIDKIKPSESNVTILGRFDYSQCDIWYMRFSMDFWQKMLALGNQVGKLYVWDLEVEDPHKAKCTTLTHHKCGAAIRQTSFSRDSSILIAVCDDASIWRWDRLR
purified human, His-tagged PRC2 complex, sequence (Q15910 whole entry partner): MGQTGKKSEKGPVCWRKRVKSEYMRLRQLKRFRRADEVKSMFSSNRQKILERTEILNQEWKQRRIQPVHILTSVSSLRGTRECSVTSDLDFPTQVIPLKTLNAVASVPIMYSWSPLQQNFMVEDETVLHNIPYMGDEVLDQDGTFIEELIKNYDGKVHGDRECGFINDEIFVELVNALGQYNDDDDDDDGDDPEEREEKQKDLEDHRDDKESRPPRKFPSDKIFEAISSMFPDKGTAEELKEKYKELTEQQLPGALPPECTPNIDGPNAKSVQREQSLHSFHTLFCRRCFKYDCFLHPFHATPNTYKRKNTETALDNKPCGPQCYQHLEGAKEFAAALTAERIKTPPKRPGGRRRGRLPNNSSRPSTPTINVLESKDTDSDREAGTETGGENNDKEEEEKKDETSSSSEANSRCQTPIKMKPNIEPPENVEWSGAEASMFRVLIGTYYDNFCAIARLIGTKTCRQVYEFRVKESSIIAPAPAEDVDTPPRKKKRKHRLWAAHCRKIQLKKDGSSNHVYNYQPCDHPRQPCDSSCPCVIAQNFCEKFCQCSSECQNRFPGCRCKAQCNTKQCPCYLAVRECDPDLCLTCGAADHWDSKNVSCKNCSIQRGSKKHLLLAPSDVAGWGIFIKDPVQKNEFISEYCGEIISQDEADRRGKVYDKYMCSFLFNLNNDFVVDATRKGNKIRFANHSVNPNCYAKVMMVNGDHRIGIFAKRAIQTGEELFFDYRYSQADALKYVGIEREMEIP
purified human, His-tagged PRC2 complex, sequence (Q15022 whole entry partner): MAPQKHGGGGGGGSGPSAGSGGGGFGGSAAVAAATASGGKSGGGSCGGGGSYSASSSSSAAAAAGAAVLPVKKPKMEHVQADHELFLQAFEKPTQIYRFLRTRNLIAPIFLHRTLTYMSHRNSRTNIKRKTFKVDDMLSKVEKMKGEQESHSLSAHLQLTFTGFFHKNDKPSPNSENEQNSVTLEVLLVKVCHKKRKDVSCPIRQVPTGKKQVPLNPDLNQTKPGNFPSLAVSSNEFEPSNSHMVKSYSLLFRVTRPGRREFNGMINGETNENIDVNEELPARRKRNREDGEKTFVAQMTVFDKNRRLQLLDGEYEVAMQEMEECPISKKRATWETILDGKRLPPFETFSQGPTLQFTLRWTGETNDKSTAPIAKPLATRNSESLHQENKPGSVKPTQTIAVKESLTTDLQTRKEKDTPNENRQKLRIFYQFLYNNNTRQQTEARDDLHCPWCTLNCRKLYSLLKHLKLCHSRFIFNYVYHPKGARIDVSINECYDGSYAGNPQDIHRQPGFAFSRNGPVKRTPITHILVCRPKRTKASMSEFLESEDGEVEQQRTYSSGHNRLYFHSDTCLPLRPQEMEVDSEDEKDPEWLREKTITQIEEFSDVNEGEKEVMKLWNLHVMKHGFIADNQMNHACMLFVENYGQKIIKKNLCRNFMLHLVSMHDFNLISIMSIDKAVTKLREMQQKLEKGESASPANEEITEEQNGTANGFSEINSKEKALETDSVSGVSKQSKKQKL
purified human, His-tagged PRC2 complex, sequence (Q6ZN18 whole entry partner): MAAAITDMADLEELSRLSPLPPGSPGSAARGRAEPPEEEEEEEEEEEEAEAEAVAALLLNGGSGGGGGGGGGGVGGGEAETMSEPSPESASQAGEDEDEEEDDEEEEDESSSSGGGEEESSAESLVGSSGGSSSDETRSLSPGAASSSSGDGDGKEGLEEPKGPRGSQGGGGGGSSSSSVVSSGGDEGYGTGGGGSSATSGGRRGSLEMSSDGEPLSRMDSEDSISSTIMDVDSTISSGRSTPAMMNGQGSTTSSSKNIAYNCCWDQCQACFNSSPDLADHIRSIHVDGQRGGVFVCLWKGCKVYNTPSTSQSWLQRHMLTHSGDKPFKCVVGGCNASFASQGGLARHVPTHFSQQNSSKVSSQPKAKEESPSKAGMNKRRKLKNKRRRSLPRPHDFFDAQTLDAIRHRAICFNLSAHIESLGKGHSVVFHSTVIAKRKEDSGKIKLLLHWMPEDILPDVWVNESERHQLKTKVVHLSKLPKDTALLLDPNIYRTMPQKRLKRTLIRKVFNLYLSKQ
purified human, His-tagged PRC2 complex, sequence (Q09028 whole entry partner): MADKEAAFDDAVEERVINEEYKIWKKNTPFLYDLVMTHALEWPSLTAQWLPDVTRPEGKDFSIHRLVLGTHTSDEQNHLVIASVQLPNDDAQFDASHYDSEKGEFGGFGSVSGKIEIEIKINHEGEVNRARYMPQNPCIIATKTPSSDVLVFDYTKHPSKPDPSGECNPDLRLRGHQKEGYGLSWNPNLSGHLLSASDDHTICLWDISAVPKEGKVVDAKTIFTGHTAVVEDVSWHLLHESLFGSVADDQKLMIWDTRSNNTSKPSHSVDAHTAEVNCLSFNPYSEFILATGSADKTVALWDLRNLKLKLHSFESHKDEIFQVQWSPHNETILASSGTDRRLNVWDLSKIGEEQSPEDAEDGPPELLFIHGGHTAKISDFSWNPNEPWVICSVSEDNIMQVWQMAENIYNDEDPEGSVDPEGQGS
Molecule `Cc1cc(C2CCCN2)ccc1-c1cnc(NCc2c(F)ccc3c2CCO3)n2cc(C#N)nc12` (single isomer, unassigned) [Example 213, 5-(((5-fluoro-2,3-dihydrobenzofuran-4-yl)methyl)amino)-8-(2-methyl-4-(pyrrolidin-2-yl)phenyl)imidazo[1,2-c]pyrimidine-2-carbonitrile] showed an IC50 of under 100 nM.
Regarding `Cc1cc(C2CCCN2)ccc1-c1cnc(NCc2c(F)ccc3c2CCO3)n2cc(C#N)nc12` (single isomer, unassigned) [Example 214, 5-(((5-fluoro-2,3-dihydrobenzofuran-4-yl)methyl)amino)-8-(2-methyl-4-(pyrrolidin-2-yl)phenyl)imidazo[1,2-c]pyrimidine-2-carbonitrile], the IC50 is under 100 nM.
Regarding `Cc1cn(-c2cnc(NCc3c(F)ccc4c3CCO4)n3cc(C(=O)O)nc23)cn1` [Example 4, 5-(((5-fluoro-2,3-dihydrobenzofuran-4-yl)methyl)amino)-8-(4-methyl-1H-imidazol-1-yl)imidazo[1,2-c]pyrimidine-2-carboxylic Acid], the IC50 is under 100 nM.
The molecule `Cc1nn(C(C)C)cc1-c1cnc(NCc2c(F)ccc3c2CCO3)n2cc(C(=O)O)nc12` [Example 5, 5-(((5-fluoro-2,3-dihydrobenzofuran-4-yl)methyl)amino)-8-(1-isopropyl-3-methyl-1H-pyrazol-4-yl)imidazo[1,2-c]pyrimidine-2-carboxylic acid] came in with an IC50 of under 100 nM.
The figure for `COc1cc(C)c(-c2cnc(NCc3c(F)ccc4c3CCO4)n3cc(C(=O)O)nc23)cn1` [Example 6, 5-(((5-fluoro-2,3-dihydrobenzofuran-4-yl)methyl)amino)-8-(6-methoxy-4-methylpyridin-3-yl)imidazo[1,2-c]pyrimidine-2-carboxylic acid] is 100 to 500 nM; for `Cc1nc(C2CC2)ncc1-c1cnc(NCc2c(F)ccc3c2CCO3)n2cc(C(=O)O)nc12` [Example 7, 8-(2-cyclopropyl-4-methylpyrimidin-5-yl)-5-(((5-fluoro-2,3-dihydrobenzofuran-4-yl)methyl)amino)imidazo[1,2-c]pyrimidine-2-carboxylic acid] it is under 100 nM; for `Cc1c(-c2cnc(NCc3c(F)ccc4c3CCO4)n3cc(C(=O)O)nc23)cnn1C(C)C` [Example 8, 5-(((5-fluoro-2,3-dihydrobenzofuran-4-yl)methyl)amino)-8-(1-isopropyl-5-methyl-1H-pyrazol-4-yl)imidazo[1,2-c]pyrimidine-2-carboxylic acid] it is under 100 nM.
The molecule `Cc1cc(-c2cnc(NCc3c(F)ccc4occc34)n3cc(C(=O)O)nc23)n(C)n1` [Example 9, 8-(1,3-dimethyl-1H-pyrazol-5-yl)-5-(((5-fluorobenzofuran-4-yl)methyl)amino)imidazo[1,2-c]pyrimidine-2-carboxylic acid] registered an IC50 of under 100 nM.
The figure for `Cc1cc(-c2cnc(NCc3cccc4c3CCO4)n3cc(C(=O)O)nc23)n(C)n1` [Example 10, 5-(((2,3-dihydrobenzofuran-4-yl)methyl)amino)-8-(1,3-dimethyl-1H-pyrazol-5-yl)imidazo[1,2-c]pyrimidine-2-carboxylic acid] is under 100 nM.
In turn, `Cc1cc(-c2cnc(NCc3c(F)ccc4c3CCO4)n3cc(C(N)=O)nc23)n(C)n1` [Example 11, 8-(1,3-dimethyl-1H-pyrazol-5-yl)-5-(((5-fluoro-2,3-dihydrobenzofuran-4-yl)methyl)amino)imidazo[1,2-c]pyrimidine-2-carboxamide] came in with an IC50 of under 100 nM.
The figure for `Cc1ncccc1-c1cnc(NCc2c(F)ccc3occc23)n2cc(C(N)=O)nc12` [Example 12, 5-(((5-fluorobenzofuran-4-yl)methyl)amino)-8-(2-methylpyridin-3-yl)imidazo[1,2-c]pyrimidine-2-carboxamide] is under 100 nM.
Turning to `Cc1nn(C(C)C)cc1-c1cnc(NCc2c(F)ccc3c2CCO3)n2cc(C(N)=O)nc12` [Example 13, 5-(((5-fluoro-2,3-dihydrobenzofuran-4-yl)methyl)amino)-8-(1-isopropyl-3-methyl-1H-pyrazol-4-yl)imidazo[1,2-c]pyrimidine-2-carboxamide], the IC50 is under 100 nM.
With `COc1cc(C)c(-c2cnc(NCc3c(F)ccc4c3CCO4)n3cc(C(N)=O)nc23)cn1` [Example 14, 5-(((5-fluoro-2,3-dihydrobenzofuran-4-yl)methyl)amino)-8-(6-methoxy-4-methylpyridin-3-yl)imidazo[1,2-c]pyrimidine-2-carboxamide] the figure was 100 to 500 nM; with `Cc1nc(C2CC2)ncc1-c1cnc(NCc2c(F)ccc3c2CCO3)n2cc(C(N)=O)nc12` [Example 15, 8-(2-cyclopropyl-4-methylpyrimidin-5-yl)-5-(((5-fluoro-2,3-dihydrobenzofuran-4-yl)methyl)amino)imidazo[1,2-c]pyrimidine-2-carboxamide], 100 to 500 nM; with `Cc1c(-c2cnc(NCc3c(F)ccc4c3CCO4)n3cc(C(N)=O)nc23)cnn1C(C)C` [Example 16, 5-(((5-fluoro-2,3-dihydrobenzofuran-4-yl)methyl)amino)-8-(1-isopropyl-5-methyl-1H-pyrazol-4-yl)imidazo[1,2-c]pyrimidine-2-carboxamide], under 100 nM.
On to `Cc1cn(-c2cnc(NCc3c(F)ccc4c3CCO4)n3cc(C(N)=O)nc23)cn1` [Example 17, 5-(((5-fluoro-2,3-dihydrobenzofuran-4-yl)methyl)amino)-8-(4-methyl-1H-imidazol-1-yl)imidazo[1,2-c]pyrimidine-2-carboxamide], for which the IC50 was 100 to 500 nM.
Take `Cc1cc(-c2cnc(NCc3c(F)ccc4occc34)n3cc(C(N)=O)nc23)n(C)n1` [Example 18, 8-(1,3-dimethyl-1H-pyrazol-5-yl)-5-(((5-fluorobenzofuran-4-yl)methyl)amino)imidazo[1,2-c]pyrimidine-2-carboxamide]: the IC50 is under 100 nM.
The molecule `Cc1cc(-c2cnc(NCc3cccc4c3CCO4)n3cc(C(N)=O)nc23)n(C)n1` [Example 19, 5-(((2,3-dihydrobenzofuran-4-yl)methyl)amino)-8-(1,3-dimethyl-1H-pyrazol-5-yl)imidazo[1,2-c]pyrimidine-2-carboxamide] showed an IC50 of under 100 nM.
The figure for `CNC(=O)c1cn2c(NCc3c(F)ccc4c3CCO4)ncc(-c3cc(C)nn3C)c2n1` [Example 20, 8-(1,3-dimethyl-1H-pyrazol-5-yl)-5-(((5-fluoro-2,3-dihydrobenzofuran-4-yl)methyl)amino)-N-methylimidazo[1,2-c]pyrimidine-2-carboxamide] is under 100 nM.
`Cc1cc(-c2cnc(NCc3c(F)ccc4c3CCO4)n3cc(C(=O)N(C)C)nc23)n(C)n1` [Example 21, 8-(1,3-dimethyl-1H-pyrazol-5-yl)-5-(((5-fluoro-2,3-dihydrobenzofuran-4-yl)methyl)amino)-N,N-dimethylimidazo[1,2-c]pyrimidine-2-carboxamide] had an IC50 of over 500 nM.
With `Cc1ncccc1-c1cnc(NCc2c(F)ccc3occc23)n2cc(C#N)nc12` [Example 22, 5-(((5-fluorobenzofuran-4-yl)methyl)amino)-8-(2-methylpyridin-3-yl)imidazo[1,2-c]pyrimidine-2-carbonitrile] the figure was 100 to 500 nM; with `Cc1nn(C(C)C)cc1-c1cnc(NCc2c(F)ccc3c2CCO3)n2cc(C#N)nc12` [Example 23, 5-(((5-fluoro-2,3-dihydrobenzofuran-4-yl)methyl)amino)-8-(1-isopropyl-3-methyl-1H-pyrazol-4-yl)imidazo[1,2-c]pyrimidine-2-carbonitrile], 100 to 500 nM.
Regarding `COc1cc(C)c(-c2cnc(NCc3c(F)ccc4c3CCO4)n3cc(C#N)nc23)cn1` [Example 24, 5-(((5-fluoro-2,3-dihydrobenzofuran-4-yl)methyl)amino)-8-(6-methoxy-4-methylpyridin-3-yl)imidazo[1,2-c]pyrimidine-2-carbonitrile], the IC50 fell in the range of 100 to 500 nM.
For the molecule `Cc1nc(C2CC2)ncc1-c1cnc(NCc2c(F)ccc3c2CCO3)n2cc(C#N)nc12` [Example 25, 8-(2-cyclopropyl-4-methylpyrimidin-5-yl)-5-(((5-fluoro-2,3-dihydrobenzofuran-4-yl)methyl)amino)imidazo[1,2-c]pyrimidine-2-carbonitrile], the IC50 was 100 to 500 nM.
The molecule `Cc1c(-c2cnc(NCc3c(F)ccc4c3CCO4)n3cc(C#N)nc23)cnn1C(C)C` [Example 26, 5-(((5-fluoro-2,3-dihydrobenzofuran-4-yl)methyl)amino)-8-(1-isopropyl-5-methyl-1H-pyrazol-4-yl)imidazo[1,2-c]pyrimidine-2-carbonitrile] came in with an IC50 of 100 to 500 nM.
The molecule `Cc1cc(-c2cnc(NCc3cccc4c3OCO4)n3cc(C#N)nc23)n(C)n1` [Example 27, 5-((benzo[d][1,3]dioxol-4-ylmethyl)amino)-8-(1,3-dimethyl-1H-pyrazol-5-yl)imidazo[1,2-c]pyrimidine-2-carbonitrile] yielded an IC50 of over 500 nM.
With `Cc1cc(-c2cnc(NCc3c(Cl)ccc4c3CCO4)n3cc(C#N)nc23)n(C)n1` [Example 29, 5-(((5-chloro-2,3-dihydrobenzofuran-4-yl)methyl)amino)-8-(1,3-dimethyl-1H-pyrazol-5-yl)imidazo[1,2-c]pyrimidine-2-carbonitrile] the figure was over 500 nM.

Broadly, the IC50 is the point on the concentration scale where inhibition reaches its midpoint. A high value points to lower potency.

Values taken from patent US20240398811A1, “PRC2 INHIBITORS FOR USE IN TREATING BLOOD DISORDERS” (ORIC Pharmaceuticals, Inc., priority 2021, published 2024).
